Data set [1] can be described thus: Partition coefficient between 1-octanol (n-octanol) and buffer. The class given is physicochemical. The conditions noted are these: for Partition coefficient (P.C.), 1-octanol/pH 7.0 buffer: 1-octanol/pH 7.0 phosphate buffer. Here is the method:
(§1) Partition coefficients were measured by mixing each Tc-99m compound with 3 g each of 1-octanol and buffer (pH 7.0 or 7.4, 0.1 M phosphate) in a test tube. The test tube was vortexed for 3 minutes at room temperature, then centrifuged for 5 minutes. Two weighed samples (0.5 g each) from the 1-octanol and buffer layers were counted in a well counter. The partition coefficient was determined by calculating the ratio of cpm/g of octanol to that of buffer. Samples from the octanol layer were repartitioned until consistent partition coefficient values were obtained. The measurement was repeated 3 times.
as §1, with “The partition coefficient was measured” for “Partition coefficients were measured”, “mixing the” for “mixing each”, “3 min” for “3 minutes”

The format of data set [2] is in vivo, Male Sprague-Dawley rats. Here is the method:
Male Sprague-Dawley rats (225-300 g) allowed free access to food and water were used for in vivo biodistribution studies. Kung, 1984, supra; Kung, 1985, supra. While under ether anesthesia, 0.2 mL of a saline solution containing 1.19a, 1.19b, 1.20a, 1.20b or 1.21 (50-100 μCi) was injected directly into the femoral vein of rats, and the rats were sacrificed by cardiac excision at various time points post-injection. The organs of interest were removed and weighed, and the radioactivity was counted with an automatic gamma counter (Packard 5000). The percentage dose per organ was calculated by a comparison of the tissue counts to suitably diluted aliquots of the injected material. Total activities of blood and muscle were calculated under the assumption that they were 7% and 40% of the total body weight, respectively.
(§2) The major criteria for determining the potential usefulness of in vivo dopamine transporter imaging agents are based on an animal biodistribution study. In this case, rats were used as an animal model. After an intravenous injection of the Tc-99m labeled compounds, the values of initial brain uptake (% dose/whole organ) at 2 minutes post intravenous injection are used to measure the ability to penetrate the intact blood-brain barrier. Compounds displaying higher brain uptake are the better agents (minimum requirement >0.1% dose in brain). The second criteria is the specific uptake in the striatum region of the brain, where dopamine transporters are located. The uptake value (% dose/gram) of the striatum (ST) is divided by the background area, cerebellum (CB; essentially devoid of dopamine transporter); the ratio of ST/CB is an indicator for specific uptake (minimum requirement for ST/CB >1.5). Five structurally similar tropane derivatives were examined in this biological study. (Tables 1.1 to 1.4).
Male Sprague-Dawley rats (225-300 g) that were allowed free access to food and water were used for in vivo biodistribution studies. (Kung, 1984, supra; Kung, 1985, supra). While under halothane anesthesia, 0.2 mL of a saline solution containing 3.24 to 3.34 ([…]) was injected directly into the femoral vein of rats, and they were sacrificed by cardiac excision at various time points post-injection. The organs of interest were removed and weighed, and the radioactivity was counted with an automatic gamma counter (Packard 5000). The percentage dose per organ was calculated by a comparison of the tissue counts to suitably diluted aliquots of the injected material. Total activities of blood and muscle were calculated under the assumption that they were 7% and 40% of the total body weight, respectively.

Data set [3] concerns the target T1, dopamine transporters (Rattus norvegicus, UniProt P23977). The class given is in vivo, Male Sprague-Dawley rats. The following applies: rats, iv. The protocol:
For dopamine transporter imaging agents, the target area of the brain is the striatum, where dopamine transporters are highly concentrated. The cerebellum region is suitable for use as the background region, because it has no dopamine transporters. The specific uptake is measured by the ratio of % dose/gram of striatum divided by % dose/gram of cerebellum (ST/CB ratio)--the higher the value, the better the specific uptake, and the more promising as a dopamine transporter imaging agent.
(§3) Regional brain distribution in rats was obtained after an injection of 1.19a, 1.19b, 1.20a, 1.20b or 1.21. Samples from different brain regions (cortex, striatum, hippocampus, and cerebellum) were dissected, weighed and counted, and the percentage dose per gram of sample was calculated by comparing the sample counts with the count of the diluted initial dose. The uptake ratio of each region was obtained by dividing the percentage dose per gram of that region by that of the cerebellum. For blocking studies, rats were injected with either β-CIT or haloperidol (iv, 1 mg/Kg) 5 min prior to injection of 1.19a. The rats were dissected and brain tissue samples were counted as described above. The specific uptake of the compound was expressed as ratio of ST/CB (% dose/g of striatum divided by the same of cerebellum).
as §2
as §3, with “3.24 to 3.34.” for “1.19a, 1.19b, 1.20a, 1.20b or 1.21.”, “3.25.” for “1.19a.”, “above.” for “above. The specific uptake of the compound was expressed as ratio of ST/CB (% dose/g of striatum divided by the same of cerebellum).”

For data set [4], the target named is T2, rat striatal homogenates (dopamine transporter) (Rattus norvegicus, UniProt P23977).
T2 construct: from tissue; host or cells: rat striatum homogenate
T2 sequence (P23977 whole entry): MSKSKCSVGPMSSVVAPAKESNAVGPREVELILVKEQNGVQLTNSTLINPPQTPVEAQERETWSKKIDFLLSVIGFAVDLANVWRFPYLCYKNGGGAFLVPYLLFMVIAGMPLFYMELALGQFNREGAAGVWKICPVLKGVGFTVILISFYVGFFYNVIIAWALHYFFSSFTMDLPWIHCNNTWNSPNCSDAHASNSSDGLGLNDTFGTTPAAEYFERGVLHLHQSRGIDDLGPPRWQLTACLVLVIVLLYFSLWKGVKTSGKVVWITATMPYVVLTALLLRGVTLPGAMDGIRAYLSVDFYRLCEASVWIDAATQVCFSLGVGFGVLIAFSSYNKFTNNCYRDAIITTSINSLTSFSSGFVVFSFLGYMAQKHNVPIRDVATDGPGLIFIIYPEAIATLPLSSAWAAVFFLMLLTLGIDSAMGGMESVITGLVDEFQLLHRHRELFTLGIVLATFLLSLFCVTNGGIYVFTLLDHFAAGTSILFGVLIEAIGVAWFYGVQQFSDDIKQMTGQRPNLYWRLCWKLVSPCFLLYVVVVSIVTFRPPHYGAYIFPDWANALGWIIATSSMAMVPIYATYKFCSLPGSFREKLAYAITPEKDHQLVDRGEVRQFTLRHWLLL
The data set can be described thus: In vitro binding with rat striatal homogenates using [^125 I]IPT as the ligand. The conditions noted are these: for pKi: [^125 I]IPT as ligand.

Data set [5] concerns the target T1, dopamine transporters. The data set can be described thus: In vitro autoradiography of rat brain sections. In kind it is binding, Male Sprague-Dawley rats. The conditions noted are these: rat brain coronal sections. The protocol: Male Sprague-Dawley rats ([…]) were sacrificed by decapitation, and the brains were removed, placed in OTC embedding medium (Miles Laboratory, Elkhart, Ind.) frozen in powdered dry ice. After equilibration to -15° C., 20 μm coronal sections were sliced on a cryostat (Hacker Instruments, Fairfield, N.J.), thaw mounted onto gelatin-coated slides, desiccated at 4° C. for 3 hours and kept at -70° C. until use. Prior to the experiment, the slides were dried at room temperature and preincubated for 30 minutes in buffer containing 50 mM Tris-HCl (pH 7.4, 120 mM NaCl). The slides were then incubated for 2 hours in preincubation buffer and the [^99m Tc] compound 3.25 (385,000 cpm/200 μL) in a coplan jar, washed for 1 hour in cold Tris buffer, with one change of buffer, dipped in ice-cold water to remove buffer salts and allowed to dry at room temperature. Nonspecific binding was determined in the presence of 1 μM IPT. These slides were simultaneously exposed to DuPont x-ray film in an autoradiographic cassette for 18 hours. The exposed film was developed with a Kodak automatic film processor.

In data set [6] the test system is dopamine transporters. The following applies: cited from earlier work; for Time for reaching optimal uptake ratio / equilibrium: basal ganglia versus frontal cortex; for Literature binding / localization / biodistribution, in words: in vivo.
The subject of the next data set is dopamine transporter. The data set can be described thus: Blocking studies in rats (pretreatment or co-injection with competing agent). The class given is in vivo, Male Sprague-Dawley rats. The following applies: 1 mg/kg iv, 5 min before tracer, rats. Here is the method: as §3
as §3, with “3.24 to 3.34.” for “1.19a, 1.19b, 1.20a, 1.20b or 1.21.”, “3.25.” for “1.19a.”, “above.” for “above. The specific uptake of the compound was expressed as ratio of ST/CB (% dose/g of striatum divided by the same of cerebellum).”

The source of these data is patent US6241963A, “Dopamine and serotonin transporter ligands and imaging agents” (priority 1996, dated 2001).

pKd, pKi: −log10 of the molar value. Where “and” joins values, the source holds several entries; their conditions need not be identical. Equal values may be shown once. Entries after “also recorded” stand apart in the source; their conditions may differ. Read-outs that look alike come from different tables or passages of the source. Some results are limits rather than exact numbers.

T1 sequence (P23977 whole entry): as above

Turning to `CN1[C@H]2CC[C@@H]1[C@@H](C[N+]13CC[S][99Tc-]14(=[O])[S]CC[N]4CC3)[C@@H](c1ccc(F)cc1)C2` (some centres unmarked) [Compound 1.20a], in data set [1], the “Partition coefficient (P.C.), 1-octanol/pH 7.0 buffer” value is 99-1818 and 99. For the same compound, the “Brain uptake, 2 min” value in data set [2] (rats, iv, 2 min) is reported as 0.37 ± 0.09 % dose/organ. In addition, the “Brain uptake, 60 min” value in data set [2] (rats, iv) was 0.098 ± 0.014 % dose/organ. Also, the “ST/CB ratio, 60 min” value on dopamine transporters [3] is 2.18 and 2.18 ± 0.32.
Broadly, the pKd is the Kd on a negative log10 scale, so that one unit is a factor of ten. For the compound `COC(=O)[C@H]1[C@@H](c2ccc(Cl)cc2)C[C@@H]2CC[C@H]1N2CC=CI` [IPT, N-(3-iodopropen-2-yl)-2β-carbomethoxy-3β-(4-chlorophenyl)tropane, reference compound], the pKd in data set [4] (data not shown, read-out: Kd of the radioligand [^125 I]IPT) was 9.70. Moreover, on dopamine transporters [5], the Autoradiographic regional labeling entry is “almost identical regional labeling pattern”. In the data set with dopamine transporters [6], the “Time for reaching optimal uptake ratio / equilibrium” value is “less than one hour”; the “Literature binding / localization / biodistribution, in words” value was “much higher binding affinity and selectivity to dopamine reuptake sites”.
A word on the pKi: it is the Ki on a negative log10 scale, so that one unit is a factor of ten. A lower pKi goes with a large Ki. As for `CN1[C@H]2CC[C@@H]1[C@@H](CN(CCS)CCNCCS)[C@@H](c1ccc(Cl)cc1)C2` [Compound 1.16a], the pKi in data set [4] was 8.15.
Consider `COC(=O)[C@H]1[C@@H](OC(=O)c2ccccc2)C[C@@H]2CC[C@H]1N2C` [cocaine], for which the “Literature binding / localization / biodistribution, in words” value in the data set on dopamine transporters [6] is “largely concentrated in the basal ganglia”.
Turning to `COC(=O)[C@H]1[C@@H](c2ccc(I)cc2)C[C@@H]2CC[C@H]1N2C` [β-CIT, N-methyl-2b-carbomethoxy-3b-(4-iodophenyl)tropane, reference compound], the “Effect of pretreatment on specific striatal uptake of tracer” value in the data set with dopamine transporter is “could be blocked; also recorded: showed blocking of the specific uptake”; with dopamine transporter (listed as RTI-55), “could be blocked”. Besides, the “Time for reaching optimal uptake ratio / equilibrium” value with dopamine transporters [6] was above 18 h. Moreover, the “Literature binding / localization / biodistribution, in words” value in the data set on dopamine transporters [6] was “much higher binding affinity and selectivity to dopamine reuptake sites”.
Regarding “2b-{oxo[N,N'-bis-(2'-mercaptoethyl)-ethylenediaminato)]rhenium (V)-methylamino}-3b-(4-chlorophenyl)tropane [Compound 1.22]”, in data set [4], the pKi is 7.85.
For the compound `CN1[C@H]2CC[C@@H]1[C@@H](C(=O)[N+]13CC[S][99Tc-]14(=[O])[S]CC[N]4CC3)[C@@H](c1ccc(F)cc1)C2` (some centres unmarked) [Compound 1.20b], in data set [1], the “Partition coefficient (P.C.), 1-octanol/pH 7.0 buffer” value is 99-1818 and 104. In addition, the “Brain uptake, 2 min” value in data set [2] (rats, iv, 2 min) was 0.31 ± 0.09 % dose/organ. Besides, in data set [2] (rats, iv), the “Brain uptake, 60 min” value is reported as 0.07 ± 0.010 % dose/organ. The “ST/CB ratio, 60 min” value on dopamine transporters [3] was 1.92 and 1.92 ± 0.28.
With `CN1[C@H]2CC[C@@H]1[C@@H](C(=O)[N+]13CC[S][99Tc-]14(=[O])[S]CC[N]4CC3)[C@@H](c1ccc(Cl)cc1)C2` (some centres unmarked) [Compound 1.19b], in data set [1], the “Partition coefficient (P.C.), 1-octanol/pH 7.0 buffer” value stood at 230. Further, the “Brain uptake, 2 min” value in data set [2] (rats, iv, 2 min) was found to be 0.39 ± 0.12 % dose/organ. In data set [2] (rats, iv), the “Brain uptake, 30 min” value came out at 0.21 ± 0.03 % dose/organ and the “Brain uptake, 60 min” value is 0.11 ± 0.02 % dose/organ. On dopamine transporters [3], the “ST/CB ratio, 30 min” value is 2.78; the “ST/CB ratio, 60 min” value is 2.78 and 2.78 ± 0.32.
For `CN1[C@H]2CC[C@@H]1[C@@H](C[N+]13CC[S][99Tc-]14(=[O])[S]CC[N]4C(=O)C3)[C@@H](c1ccc(Cl)cc1)C2` (some centres unmarked) [Compound 1.21], in data set [1], the “Partition coefficient / lipophilicity, comparison in words” value is listed as “almost tenfold higher partition coefficient” and the “Partition coefficient (P.C.), 1-octanol/pH 7.0 buffer” value is given as 1818. Further, the “Brain uptake, 60 min, footnote c” value in data set [2] (data from rats sacrificed at 30 minutes) turned out to be 0.07 ± 0.014 % dose/organ. In data set [2] (rats, iv, 2 min), the “Brain uptake lower than 1.19a and 1.19b” value is “at least 300%”; the “Brain uptake, 2 min” value was determined as 0.11 ± 0.02 % dose/organ. Moreover, the “Brain uptake, 30 min” value in data set [2] (rats, iv) stood at 0.070 ± 0.014 % dose/organ. Moreover, at dopamine transporters [3], the “Brain uptake and specific striatal uptake, in words” value is listed as “lowest brain uptake”; the “ST/CB ratio, 30 min” value came out at 1.17; the “ST/CB ratio, 60 min” value is on record as 1.17 ± 0.010. Moreover, on dopamine transporters [3] (listed as 21), the “ST/CB ratio, 60 min” value amounted to 1.17.
With `COC(=O)C1C(c2ccc(F)cc2)CC2CCC1N2CCCN(CC[S-])CC([O-])=NCC[S-].[O]=[99Tc+3]` (centres unmarked) [Technepine], the figures for the “Literature binding / localization / biodistribution, in words” value in the data set with dopamine transporters [6] and in the data set with dopamine transporters [6] (listed as technepine) were “poor biodistribution” and “less favorable biological properties”, respectively.
`COC(=O)[C@H]1[C@@H](c2ccc(Cl)cc2)C[C@@H]2CC[C@H]1N2CC[S][Re-]12(=[O])[S]CC[N+]1(C)CC[S]2` (some centres unmarked) [Compound 3.23] gave a pKi in data set [4] of 9.52.
